Data from patent publication US20260167641A1, “CRYSTAL FORM OF IMIDAZOPYRAZINE DERIVATIVE, PREPARATION METHOD THEREFOR AND USE THEREOF” (TRANSTHERA SCIENCES (NANJING), INC., priority 2022, published 2026).
Values after ≈ are worked out from the molar mass of the structure shown.

Columns and labels:
Type in all cases: physicochemical
[1] = Solubility test in pH 4.5 acetate buffer solution
Experimental: Appropriate amounts of crystal forms I, II, III, and the compound of formula (I) were weighed and placed into 15 mL centrifuge tubes separately. A pH 4.5 acetate buffer was added to each tube to prepare saturated solutions. The tubes were sealed and placed in a water bath thermostatic oscillator to shake at 37° C. and a rotation speed of 200 rpm for 24 h. After centrifugation, the supernatants were collected and diluted to the corresponding multiples. The concentrations were measured. The detection was conducted according to the 2020 edition of the Chinese Pharmacopoeia.

Hygroscopicity test = details: 25° C.±1° C.
Experimental: The experimental procedure was conducted in accordance with the guidelines for the hygroscopicity test of drugs in Chinese Pharmacopeia (2020 Edition). • 1. A dry glass weighing bottle with a stopper (outer diameter: 50 mm, height: 15 mm) was taken and placed in a thermostatic drier at 25° C.±1° C. (with a saturated ammonium chloride solution at the bottom) on the day before the test. After 24 h. the bottle was taken out, and its weight (m1) was precisely weighed. • 2. […] The total weight (m2) was precisely weighed. • 3. The weighing bottle was left open, and both the bottle and its bottle cap were placed under the constant temperature and humidity conditions described above for 24 h. • 4. The bottle was well sealed with its bottle cap, and the total weight (m3) was precisely weighed.
[formula] • 5. Hygroscopicity characteristics and hygroscopic weight gains are defined as follows. • deliquescent: sufficient water is absorbed to form a liquid; • extremely hygroscopic: the hygroscopic weight gain is not less than 15%; • hygroscopic: the hygroscopic weight gain is less than 15% but not less than 2%; • slightly hygroscopic: the hygroscopic weight gain is less than 2% but not less than 0.2%; • non-hygroscopic or almost non-hygroscopic: the hygroscopic weight gain is less than 0.2%.

Long-term stability test = assay: Long-term stability test
Experimental: The samples were stored under the conditions of 25° C./60% RH (relative humidity) and 30° C./65% RH (relative humidity), respectively, and then collected at 1M, 2M, 3M, 6M, 9M, 12M, and 18M. Additionally, the samples were stored under the conditions of 40° C./75% RH (relative humidity) and then collected at 1M, 2M, 3M, and 6M. The appearance, total impurities, content, moisture, and crystal form changes (at 3M, 6M, and 12M) were examined and compared with the results on day 0.

In the case of `Nc1nccn2c(C34CCC(NC(=O)CN5CCOCC5)(CC3)C4)nc(-c3ccc(C(=O)Nc4cc(C(F)(F)F)ccn4)cc3)c12` (single isomer, unassigned) [Crystal form II, 4-(8-amino-3-(4-(2-morpholinoacetamido)bicyclo[2.2.1]heptan-1-yl)imidazo[1,5-a]pyrazin-1-yl)-N-(4-(trifluoromethyl)pyridin-2-yl)benzamide], the “Solubility compared to the amorphous form” value [1] was “higher solubility”, the Solubility ([1]; saturated solution, 37° C., 200 rpm, 24 h) was 375 µg/mL (≈ 591 µM) and the Hygroscopicity characteristic (Hygroscopicity test; 24 h) was “slightly hygroscopic (the hygroscopic weight gain is less than 2% but not less than 0.2%)”. For the same compound, the “24 h percentage weight gain” value (Hygroscopicity test; saturated ammonium chloride solution) was 0.34%, the Appearance (Long-term stability test; 0 day) was “Yellow solid” and the Content % (Long-term stability test; 0 day) was 98.3%. The “Crystal form XRPD” value (Long-term stability test; 0 day) was “Crystal form II”, the Moisture % (Long-term stability test; 0 day) was 0.23% and the Total impurities % (Long-term stability test; 0 day) was 1.1%. For the same compound, the “Changes in appearance, total impurities, content, and moisture” value (Long-term stability test; 6 months at 40° C./75% RH, 18 months at 25° C./60% RH and 30° C./65% RH) was “no significant changes”, the Appearance (Long-term stability test; 25° C./60% RH, 1M) was “Yellow solid” and the Content % (Long-term stability test; 25° C./60% RH, 1M) was 98.2%. The Moisture % (Long-term stability test; 25° C./60% RH, 1M) was 0.28%, the Total impurities % (Long-term stability test; 25° C./60% RH, 1M) was 1.1% and the Appearance (Long-term stability test; 25° C./60% RH, 2M) was “Yellow solid”. For the same compound, the Content % (Long-term stability test; 25° C./60% RH, 2M) was 98.3%, the Moisture % (Long-term stability test; 25° C./60% RH, 2M) was 0.16% and the Total impurities % (Long-term stability test; 25° C./60% RH, 2M) was 1.2%. The Appearance (Long-term stability test; 25° C./60% RH, 3M) was “Yellow solid”, the Content % (Long-term stability test; 25° C./60% RH, 3M) was 98.4% and the “Crystal form XRPD” value (Long-term stability test; 25° C./60% RH, 3M) was “Crystal form II”. The Moisture % (Long-term stability test; 25° C./60% RH, 3M) was 0.24%, the Total impurities % (Long-term stability test; 25° C./60% RH, 3M) was 1.1% and the Appearance (Long-term stability test; 25° C./60% RH, 6M) was “Yellow solid”. The Content % (Long-term stability test; 25° C./60% RH, 6M) was 98.2%, the “Crystal form XRPD” value (Long-term stability test; 25° C./60% RH, 6M) was “Crystal form II” and the Moisture % (Long-term stability test; 25° C./60% RH, 6M) was 0.16%. The Total impurities % (Long-term stability test; 25° C./60% RH, 6M) was 1.1%, the Appearance (Long-term stability test; 25° C./60% RH, 9M) was “Yellow solid” and the Content % (Long-term stability test; 25° C./60% RH, 9M) was 98.5%. The Moisture % (Long-term stability test; 25° C./60% RH, 9M) was 0.23%, the Total impurities % (Long-term stability test; 25° C./60% RH, 9M) was 1.1% and the Appearance (Long-term stability test; 25° C./60% RH, 12M) was “Yellow solid”. For the same compound, the Content % (Long-term stability test; 25° C./60% RH, 12M) was 98.2%, the “Crystal form XRPD” value (Long-term stability test; 25° C./60% RH, 12M) was “Crystal form II” and the Moisture % (Long-term stability test; 25° C./60% RH, 12M) was 0.12%. For the same compound, the Total impurities % (Long-term stability test; 25° C./60% RH, 12M) was 1.1%, the Appearance (Long-term stability test; 25° C./60% RH, 18M) was “Yellow solid” and the Content % (Long-term stability test; 25° C./60% RH, 18M) was 98.9%. The Moisture % (Long-term stability test; 25° C./60% RH, 18M) was 0.24%, the Total impurities % (Long-term stability test; 25° C./60% RH, 18M) was 1.1% and the Appearance (Long-term stability test; 30° C./65% RH, 1M) was “Yellow solid”. It also gave a Content % (Long-term stability test; 30° C./65% RH, 1M) of 98.2%, a Moisture % (Long-term stability test; 30° C./65% RH, 1M) of 0.24% and a Total impurities % (Long-term stability test; 30° C./65% RH, 1M) of 1.1%. The Appearance (Long-term stability test; 30° C./65% RH, 2M) was “Yellow solid”, the Content % (Long-term stability test; 30° C./65% RH, 2M) was 97.9% and the Moisture % (Long-term stability test; 30° C./65% RH, 2M) was 0.19%. The Total impurities % (Long-term stability test; 30° C./65% RH, 2M) was 1.2%, the Appearance (Long-term stability test; 30° C./65% RH, 3M) was “Yellow solid” and the Content % (Long-term stability test; 30° C./65% RH, 3M) was 98.2%. For the same compound, the “Crystal form XRPD” value (Long-term stability test; 30° C./65% RH, 3M) was “Crystal form II”, the Moisture % (Long-term stability test; 30° C./65% RH, 3M) was 0.30% and the Total impurities % (Long-term stability test; 30° C./65% RH, 3M) was 1.1%. For the same compound, the Appearance (Long-term stability test; 30° C./65% RH, 6M) was “Yellow solid”, the Content % (Long-term stability test; 30° C./65% RH, 6M) was 98.1% and the “Crystal form XRPD” value (Long-term stability test; 30° C./65% RH, 6M) was “Crystal form II”. For the same compound, the Moisture % (Long-term stability test; 30° C./65% RH, 6M) was 0.13%, the Total impurities % (Long-term stability test; 30° C./65% RH, 6M) was 1.1% and the Appearance (Long-term stability test; 30° C./65% RH, 9M) was “Yellow solid”. The Content % (Long-term stability test; 30° C./65% RH, 9M) was 98.4%, the Moisture % (Long-term stability test; 30° C./65% RH, 9M) was 0.24% and the Total impurities % (Long-term stability test; 30° C./65% RH, 9M) was 1.1%. For the same compound, the Appearance (Long-term stability test; 30° C./65% RH, 12M) was “Yellow solid”, the Content % (Long-term stability test; 30° C./65% RH, 12M) was 98.2% and the “Crystal form XRPD” value (Long-term stability test; 30° C./65% RH, 12M) was “Crystal form II”. For the same compound, the Moisture % (Long-term stability test; 30° C./65% RH, 12M) was 0.13%, the Total impurities % (Long-term stability test; 30° C./65% RH, 12M) was 1.1% and the Appearance (Long-term stability test; 30° C./65% RH, 18M) was “Yellow solid”. For the same compound, the Content % (Long-term stability test; 30° C./65% RH, 18M) was 99.0%, the Moisture % (Long-term stability test; 30° C./65% RH, 18M) was 0.17% and the Total impurities % (Long-term stability test; 30° C./65% RH, 18M) was 1.1%. For the same compound, the Content % (Long-term stability test; 40° C./75% RH, 1M) was 98.0%, the Appearance (Long-term stability test; 40° C./75% RH, 2M) was “Yellow solid” and the Content % (Long-term stability test; 40° C./75% RH, 2M) was 97.9%. The Moisture % (Long-term stability test; 40° C./75% RH, 2M) was 0.18%, the Total impurities % (Long-term stability test; 40° C./75% RH, 2M) was 1.2% and the Appearance (Long-term stability test; 40° C./75% RH, 3M) was “Yellow solid”. The Content % (Long-term stability test; 40° C./75% RH, 3M) was 98.1%, the “Crystal form XRPD” value (Long-term stability test; 40° C./75% RH, 3M) was “Crystal form II” and the Moisture % (Long-term stability test; 40° C./75% RH, 3M) was 0.24%. The Total impurities % (Long-term stability test; 40° C./75% RH, 3M) was 1.1%, the Appearance (Long-term stability test; 40° C./75% RH, 6M) was “Yellow solid” and the Content % (Long-term stability test; 40° C./75% RH, 6M) was 98.3%. For the same compound, the “Crystal form XRPD” value (Long-term stability test; 40° C./75% RH, 6M) was “Crystal form II”, the Moisture % (Long-term stability test; 40° C./75% RH, 6M) was 0.13% and the Total impurities % (Long-term stability test; 40° C./75% RH, 6M) was 1.1%. For the same compound, the Appearance (Long-term stability test; 40° C./75% RH, ^ IM) was “Yellow solid”, the Moisture % (Long-term stability test; 40° C./75% RH, ^ IM) was 0.24% and the Total impurities % (Long-term stability test; 40° C./75% RH, ^ IM) was 1.1%.
